Molecules are shown by their SMILES. Structures can show the parent of a compound that is named as a salt.

The experiment has as its system urine-derived renal epithelial cells. Briefly: AP staining, efficiency of AP positive clones (iPSCs induction). The format is cell-based, human. To be noted: Example 5; day 0 to day 8 of induction culture; FIG. 11-12. How it is done:
1. The procedure for AP staining is as follows,
a) Aspirate and remove the growth medium from the cultures to be stained when the cell culture is finished, wash the culture with 1×PBS one time; Fix the cells with 4% paraformaldehyde at room temperature for 2 min;
b) Aspirate the fixing solution, wash the culture with 1×TBST for 3 times; Balance with AP buffer at room temperature for 5 min;
c) Chromogenic reaction was performed with AP chromogenic reagent at room temperature in dark for 15 min (5-15 min, terminated when the color of clones became darker and without background, increase the reaction time appropriately if the clones were not stained). The chromogenic reagent was aspirated, cells were washed with 1×PBS for two times, covered with an appropriate amount of 1×PBS, observed and counted under a microscope.
Alkaline phosphatase (AP) is a phosphomonoesterase. The alkaline phosphatase in the cytoplasm can hydrolyze sodium naphthol phosphate to produce α-naphthol in alkaline environments. The latter reacts with a stable azo salt and presents a deep purple color, which the presence of alkaline phosphatase and the abundance of expression could be determined accordingly. Alkaline phosphatase is highly expressed in undifferentiated pluripotent stem cells, and the activity of alkaline phosphatase in the differentiated pluripotent stem cells is decreased. Therefore, whether the cells are clones of iPSCs could be determined by alkaline phosphatase staining (AP staining). And, thus the efficiency of iPSCs production can be easily judged according to the efficiency of AP positive clones.
a) Electroporation transformation: The recombinant plasmids obtained in step 1) were added into the culture of renal epithelial cells after digestion with trypsin, and then transferred into the renal epithelial cells. After electroporation, the cells were seeded on a cell culture plate coated with extracellular matrix;
b) Induction culture: 1-3 days after Step 1), or when the cells reached a confluence of 30% or more, the culture medium of pluripotent stem cell was used to continue induction culture. About 15-30 days after the mature of iPSCs clones, the positive clones of iPSCs were identified by AP staining, and the efficiency of AP positive clones was calculated accordingly;
On to `Cc1c[nH]c(-c2cnc(NCCNc3ccc(C#N)cn3)nc2-c2ccc(Cl)cc2Cl)n1` [CHIR-99021], for which the “preferable concentration for promoting cell reprogramming (AP staining)” value (from here on “preferable concentration”) worked out at 3 µM. As for `CCCC(=O)[O-].[Na+]` [sodium butyrate, Sodium Butyrate], the “preferable concentration” value worked out at 0.25 µM. As for `O=C(NOC[C@H](O)CO)c1ccc(F)c(F)c1Nc1ccc(I)cc1F` [PD0325901], the “preferable concentration” value came to 0.5 µM. With `N[C@@H]1C[C@H]1c1ccccc1` [tranylcypromine hydrochloride, Tranylcypromine hydrochloride], the “preferable concentration” value was found to be 2 µM.

Source of the values: patent publication US20180371422A1, “NON-VIRAL IPSCS INDUCING METHOD, COMPOSITIONS, KITS AND IPSCS” (Guangzhou Biocare Biotechnology Co., Ltd, priority 2016, published 2018).
